# Molecular target: 5-aminolevulinate synthase (ALAS) (Mus musculus (Mouse), UniProt P08680)
# Assay: ALAS activity
# Assay type: biochemical
# Conditions: not given
# Method: ALAS activity was determined according the article, Stojanovski, B. M., Breydo, L., Hunter, G. A., Uversky, V. N, Ferreira G. C. (2014) Biochim. Biophys. Acta 1844, 2145-2154, which is hereby incorporated by reference in its entirety.
# Chain of 5-aminolevulinate synthase (ALAS) (P08680 50-587): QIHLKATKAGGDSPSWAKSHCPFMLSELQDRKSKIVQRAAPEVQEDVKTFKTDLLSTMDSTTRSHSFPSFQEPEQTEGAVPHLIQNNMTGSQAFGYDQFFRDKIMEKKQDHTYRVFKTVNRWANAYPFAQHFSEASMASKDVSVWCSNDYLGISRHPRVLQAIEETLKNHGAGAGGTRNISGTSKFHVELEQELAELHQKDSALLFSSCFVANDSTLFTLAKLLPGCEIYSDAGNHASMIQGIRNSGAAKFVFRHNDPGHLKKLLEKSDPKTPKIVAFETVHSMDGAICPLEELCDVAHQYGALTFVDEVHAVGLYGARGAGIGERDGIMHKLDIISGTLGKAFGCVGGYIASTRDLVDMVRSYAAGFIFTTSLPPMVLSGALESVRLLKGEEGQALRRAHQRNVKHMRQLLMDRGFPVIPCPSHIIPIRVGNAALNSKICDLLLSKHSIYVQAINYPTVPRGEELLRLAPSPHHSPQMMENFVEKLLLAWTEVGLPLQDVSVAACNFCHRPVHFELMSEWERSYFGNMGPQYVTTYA
row,IC50,SMILES
1,43 ± 5.8 µM,CC1(C)CCN(c2ccc(C(=O)NS(=O)(=O)c3ccc(CN(CCSc4ccccc4)Cc4ccc(S(N)(=O)=O)cc4)cc3)cc2)CC1 [SZ10TA2]
2,8.6 ± 0.9 µM,Cn1cc(C(=O)C2CCCCC2)c2cc(C(=O)NS(=O)(=O)c3ccc(CN(CCSc4ccccc4)Cc4ccc(S(N)(=O)=O)cc4)cc3)ccc21 [SZ10TA40]
3,19.3 ± 2.7 µM,Cn1cc(C(=O)C2CCCCC2)c2cc(C(=O)NS(=O)(=O)c3ccc(-c4ccc(C(C)(C)C)cc4)cc3)ccc21 [SZ11TA40]
4,8.6 ± 0.9 µM,O=C(NS(=O)(=O)c1ccc(CNc2cccc([N+](=O)[O-])c2)cc1)c1ccc(CN2C(=O)C(c3ccc(F)cc3F)=C(c3ccc(F)cc3F)C2=O)cc1 [SZ12TA42]
5,50 ± 6.1 µM,COc1cccc(CN(CCSc2ccccc2)Cc2ccc(S(=O)(=O)NC(=O)c3cccc4ccccc34)cc2)c1 [SZ17TA7]
6,31.4 ± 1.8 µM,COc1ccc(Cc2ccc(C(=O)NS(=O)(=O)c3ccc(-c4ccc(Oc5ccccc5)cc4)cc3)cc2)c(OC)c1OC [SZ35TA24]

# Test system: ALAS
# Assay: not given
# Conditions: background, reference [3]; read-out: IC50 of known ALAS inhibitor; cited from earlier work
row,SMILES,IC50
1,NC(C(=O)O)C(=O)O [aminomalonate],7 µM

# Reference: patent US11479532B2, “5-aminolevulinate synthase inhibitors and methods of use thereof” (UNIVERSITY OF SOUTH FLORIDA, priority 2017, dated 2022)
